Data as given in ChEMBL document CHEMBL1201862, “PubChem BioAssay data set” (2004).
The source made the active and inactive calls.

Columns and labels:
[1] = inhibition of ADAM10 peptide cleavage – biochemical, FRET peptide substrate, recombinant human ADAM10, selectivity assay for ADAM17 exosite inhibitor project, dose response (AID 743259);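 also: ADAM10 enzyme cleaving a FRET peptide substrate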
[2] = molecular target: Disintegrin and metalloproteinase domain-containing protein 17 (Homo sapiens, UniProt P78536); assay: exosite inhibitors of ADAM17, dose response, biochemical (AID 743260)
[3] = test system: HEK293; assay: cells; assay type: functional, cell-based; conditions: Homo sapiens
[4] = molecular target: T1, Nuclear receptor subfamily 0 group B member 1 (Homo sapiens, UniProt P51843); assay: Luminescence-based cell-based high throughput dose response assay for inhibitors of the orphan nuclear receptor subfamily 0, group B, member 1 (DAX1; NR0B1). [Related pubchem assays (depositor defined):AID504766, AID504790]; assay type: functional
T1 sequence (P51843 whole entry): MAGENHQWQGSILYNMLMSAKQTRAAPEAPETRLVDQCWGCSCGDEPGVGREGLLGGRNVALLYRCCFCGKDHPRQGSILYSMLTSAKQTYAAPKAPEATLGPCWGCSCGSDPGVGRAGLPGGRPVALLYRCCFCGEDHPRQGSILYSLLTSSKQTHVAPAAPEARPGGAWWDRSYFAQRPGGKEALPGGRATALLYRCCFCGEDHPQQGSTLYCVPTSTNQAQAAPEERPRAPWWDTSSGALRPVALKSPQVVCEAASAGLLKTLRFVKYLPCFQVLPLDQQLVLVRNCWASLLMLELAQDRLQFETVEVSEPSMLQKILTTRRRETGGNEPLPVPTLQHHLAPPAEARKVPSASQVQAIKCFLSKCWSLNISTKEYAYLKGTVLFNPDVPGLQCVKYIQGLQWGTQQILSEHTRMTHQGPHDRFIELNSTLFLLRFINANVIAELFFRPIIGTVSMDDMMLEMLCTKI

[5] = molecular target: T2, DNA repair and recombination protein RAD54-like (Homo sapiens, UniProt Q92698); assay: RAD54 Holliday junction migration blockers – biochemical, fluorescence, cherry-picked samples, dose series, confirmation (AID 651657); assay type: functional
T2 sequence (Q92698 whole entry): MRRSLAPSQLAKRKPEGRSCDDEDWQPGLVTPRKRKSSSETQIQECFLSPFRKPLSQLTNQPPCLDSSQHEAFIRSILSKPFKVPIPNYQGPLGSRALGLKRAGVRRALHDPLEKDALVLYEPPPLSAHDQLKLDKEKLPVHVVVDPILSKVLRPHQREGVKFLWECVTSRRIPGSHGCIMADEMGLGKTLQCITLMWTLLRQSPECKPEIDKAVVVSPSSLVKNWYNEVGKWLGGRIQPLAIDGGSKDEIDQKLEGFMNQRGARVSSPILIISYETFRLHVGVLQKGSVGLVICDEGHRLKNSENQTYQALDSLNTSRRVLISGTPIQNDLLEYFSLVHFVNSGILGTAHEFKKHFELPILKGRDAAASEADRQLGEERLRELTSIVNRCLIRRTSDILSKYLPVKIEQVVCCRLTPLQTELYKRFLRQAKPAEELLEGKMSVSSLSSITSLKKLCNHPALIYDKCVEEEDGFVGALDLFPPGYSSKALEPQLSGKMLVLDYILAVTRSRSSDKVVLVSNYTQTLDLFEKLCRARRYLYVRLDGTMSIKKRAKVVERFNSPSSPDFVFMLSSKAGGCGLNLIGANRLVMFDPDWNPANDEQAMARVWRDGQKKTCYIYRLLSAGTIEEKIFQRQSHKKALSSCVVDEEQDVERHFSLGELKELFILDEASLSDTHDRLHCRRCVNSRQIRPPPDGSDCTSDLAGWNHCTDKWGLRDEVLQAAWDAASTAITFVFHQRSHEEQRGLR

[6] = cytotoxicity toward MDA-MB-231 breast cancer cells – cell-based, CellTiter-Glo luminescence, cherry-pick, cytotoxicity control for RAD54 inhibitor project, dose response (AID 651692); assay type: functional
[7] = viability of uninfected HEp-2 cells – cell-based, HTS, cytotoxicity control for RSV inhibitor project, dose response (AID 2410); assay type: functional; conditions: human respiratory syncytial virus
[8] = test system: A549; assay: viability loss in A549 cells – cell-based, plate reader, cherry-pick samples, cytotoxicity control, dose response (AID 687028); assay type: functional; conditions: Homo sapiens
[9] = test system: Vero; assay: mammalian cell viability reduction – secondary assay, cytotoxicity control for West Nile virus antiviral project, dose response (AID 1650); assay type: functional; conditions: Chlorocebus sabaeus
[10] = cells; assay type: functional, cell-based
[11] = cells; assay type: functional, cell-based; remark: listed apart in the source
[12] = molecular target: T3, Trace amine-associated receptor 1 (Homo sapiens, UniProt Q96RJ0); assay: Fluorescence-based cell-based high throughput dose response assay to identify agonists of the human trace amine associated receptor 1 (TAAR1).; assay type: functional
[13] = molecular target: T3, Trace amine-associated receptor 1; assay: Counterscreen for agonists of the human trace amine associated receptor 1 (hTAAR1): Fluorescence-based cell-based high throughput dose response assay to identify hTAAR1 agonist that also desensitize TAAR1 receptor response.; assay type: functional
[14] = cells
[15] = cells; conditions: HEK293
[16] = molecular target: Major prion protein (Homo sapiens, UniProt P04156); assay type: functional, cell-based
[17] = cells; remark: listed apart in the source
[18] = reduction of Shn3 3'UTR-driven luciferase in osteoblasts – cell-based, Clone20 osteoblasts, firefly luciferase, cherry-picked, dose response (AID 624132); assay type: functional;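 also: firefly luciferase luminescence from reporter carrying the Shn3 3'UTR in osteoblasts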
[19] = non-specific 3'UTR reporter inhibition in Clone20-Shn3RL – cell-based, Renilla luciferase, cherry-picked, counter-screen for Shn3 inhibitor project, dose response (AID 624133); assay type: functional
[20] = Shn3 3'UTR reporter signal decrease – cell-based, Clone20 osteoblasts, firefly luciferase, cherry-pick, set 2, Schnurri-3 inhibitor project, dose response (AID 720490); assay type: functional;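 also: actives lower the luminescence signal as inhibitors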
[21] = EF1alpha-driven Renilla reporter with control 3'UTR suppression – Clone20-Shn3RL cells, dual-Glo, cherry-pick, set 2, counter-screen for Shn3 3'UTR targeting project, dose response (AID 720724); assay type: functional, cell-based; conditions: Dual-Go Shn3RL
[22] = Dd2 malaria parasite growth inhibition potency – SYBR Green, dry powder samples, dose response (AID 1159566); assay type: functional, cell-based;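 also: potency for growth inhibition with lower SYBR green DNA signal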
[23] = toxicity to human hepatoma HepG2 cells – cell-based, cherry-picked samples, cytotoxicity control, dose response (AID 1159577); assay type: functional
[24] = growth inhibition of PfATP4-mutant resistant parasites – NITD609-resistant line, SYBR Green, dry powder, dose response (AID 1159571); assay type: functional, cell-based;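 also: parasites synchronized at ring stage by sorbitol before testing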
[25] = growth inhibition of yeast DHODH-expressing 3D7 parasites – SYBR Green, dry powder samples, dose response (AID 1159570); assay type: functional, cell-based;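 also: parasite growth measured after 72 hours of compound exposure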
[26] = test system: HeLa; assay: viability loss in HeLa cells – cell-based, ATP luminescence, cherry-pick samples, cytotoxicity control, dose response (AID 687004); assay type: functional; conditions: Homo sapiens
[27] = P. falciparum Dd2 growth inhibitors, dose response, SYBR Green, cherry-picked samples (AID 1159567); assay type: functional, cell-based
[28] = toxicity to human HepG2 hepatoma cells – cell-based, plate reader, dry powder samples, cytotoxicity control, dose response (AID 1159569); assay type: functional;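 also: inhibitor potency with signal falling toward the positive control level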
[29] = test system: HEK293; assay: viability loss in HEK293T cells – cell-based, ATP luminescence, cherry-pick samples, cytotoxicity control, dose response (AID 687005); assay type: functional; conditions: Homo sapiens;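 also: cells exposed to compound for 48 hours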
[30] = HEK293 Cytotoxicity Assay Measured in Cell-Based System Using Plate Reader - 7071-01_Inhibitor_Dose_CherryPick_Activity_Set2.; assay type: functional
[31] = cytotoxicity in HEK293 background cells – cell-based, dry powder, set 2, counter-screen for EBV LMP1 inhibitor project, dose response (AID 624374); assay type: functional
[32] = viability loss in LCL cells – cell-based, plate reader, dry powder, set 2, cytotoxicity control, dose response (AID 624367); assay type: functional
[33] = cytotoxicity in MITF-independent A375 cells – cell-based, CellTiter-Glo luminescence, dry powder, set 4, counter-screen for MITF inhibitor project, dose response (AID 624364); assay type: functional; conditions: A-375;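 also: A375 melanoma cells are MITF independent so this is a counter screen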
[34] = viability loss in MITF-independent A375 cells – cell-based, CellTiter-Glo luminescence, dry powder, set 2, counter-screen for MITF inhibitor project, dose response (AID 624489); assay type: functional; conditions: A-375;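 also: actives are compounds lowering A375 viability meaning general cytotoxicity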
[35] = blockade of melanocortin 4 receptor signaling – cell-based, plate reader, cherry pick, counter-screen for LGR2 antagonist project, dose response (AID 743444); assay type: functional;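 also: transfected HEK 293 cells stimulated with alpha-MSH peptide; potency of inhibitors of the alpha-MSH evoked signal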
[36] = toxicity toward HepG2 liver cells – cell-based, plate reader, cherry-pick, antagonist series, cytotoxicity control, dose response (AID 743416); assay type: functional
[37] = A549 cell cytotoxicity, dose response, cytotoxicity control, plate reader, cherry-pick, antagonist series (AID 743412); assay type: functional, cell-based
[38] = inhibition of bursicon-driven LGR2 cAMP signaling – cell-based, HEK293, CRE-luciferase reporter, cherry pick, dose response (AID 743342); assay type: functional
[39] = viability loss in HEK293 cells – cell-based, plate reader, cherry-picked samples, cytotoxicity control, dose response (AID 743446); assay type: functional
[40] = Cytotoxicity screening for potential Inhibitors of Bacterial Capsule Biogenesis (4).; assay type: functional
[41] = MITF: Counter assay: A375 proliferation Measured in Cell-Based System Using Plate Reader - 2084-03_Inhibitor_Dose_DryPowder_Activity_Set8.; assay type: functional; conditions: A-375
[42] = MITF Orthogonal Assay: SK-MEL-5 CTG Assay Measured in Cell-Based System Using Plate Reader - 2084-02_Inhibitor_Dose_DryPowder_Activity_Set7.; assay type: functional
[43] = inhibitors of TRPM1-promoter reporter in SK-MEL-5 – cell-based, luciferase, dry powder, set 8, MITF inhibitor project, dose response (AID 624430); assay type: functional
[44] = molecular target: Fatty acid synthase (Homo sapiens, UniProt P49327); assay: inhibition of human FAS-TE enzyme activity – biochemical, endpoint fluorescence intensity, powder samples, SAR follow-up (AID 652164); assay type: functional
[45] = CTGF mRNA reduction in DLD1 cells – cell-based, DLD1 colon cancer, RT-qPCR, cherry-pick, dose response (AID 1053122); assay type: functional; conditions: Cancer cell lines
[46] = viability loss in HepG2 liver cells – cell-based, ATP luminescence, cherry-pick, set 6, cytotoxicity control, dose response (AID 1053125); assay type: functional

COCCOc1ccc(C(F)(F)F)cc1NC(=O)CN1C(=O)NC(C)(c2ccc3c(c2)OCO3)C1=O (stereo unspecified)
IC50 [1]: 27.7 µM (inactive) | IC50 [2]: > 69.5 µM (inactive) | IC50 [3]: > 67.5 µM (inactive) | IC50 [4]: > 67.5 µM (inactive)

CN1CCCC1CCNc1ccc2sc3ccccc3c(=O)c2c1 (stereo unspecified)
AC50 [5]: 13.6 µM (active) | AC50 [6]: 48.8 µM (active) | CC50 [7]: 11.5 µM (active) | AC50 [8]: 20.2 µM (active) | CC50 [9]: 21.1 µM (active)

O=C(O)/C=C/C(=O)NCCC1=CCCCC1
IC50 [10]: > 29.9 µM (inactive) | EC50 [11]: > 29.9 µM (inactive) | EC50 [12]: 1.39 µM (active) | IC50 [13]: 7.65 µM (active)

CC(C)OCCCn1c(=N)c(C(N)=S)cc2c(=O)n3ccccc3nc21
AC50 [14]: 610 nM (active)

Cc1ccc2c(c1)-c1c(cnn1CC(=O)Nc1ccccc1N1CCN(C)CC1)CO2
AC50 [15]: 47.1 µM (active)

O=C(O)c1ccccc1C(=O)c1cccc2c(Br)cccc12
IC50 [16]: 1.57 µM (active) | IC50 [17]: > 138 µM (inactive)

COC(=O)C1=C(c2ccc(OCc3ccccc3)cc2)C[C@@H]2CC[C@H]1N2C(=O)NCCCCc1ccccc1
AC50 [18]: 2.8 µM (active) | AC50 [19]: 25.6 µM (active) | AC50 [20]: 10.3 µM (active) | AC50 [21]: 35.9 µM (active)

C[C@@H]1CN([C@@H](C)CO)C(=O)c2c(c3ccccc3n2C)-c2ccccc2CO[C@@H]1CN(C)S(=O)(=O)c1ccc(Cl)cc1
AC50 [22]: 1.97 µM (active) | AC50 [23]: > 39 µM (inactive) | AC50 [24]: 3.4 µM (active) | AC50 [25]: 3.95 µM (active) | AC50 [26]: 49.1 µM (active) | AC50 [27]: 2.33 µM (active) | AC50 [28]: 39.2 µM (active) | AC50 [29]: 25.3 µM (active) | AC50 [30]: 25.3 µM (active)

Cc1noc(C)c1S(=O)(=O)Nc1ccc2c(c1)C(=O)N([C@@H](C)CO)C[C@@H](C)[C@@H](CN(C)Cc1ccc(C(F)(F)F)cc1)OCCCC[C@H](C)O2
AbsAC35 [31]: 54.05 µM | AbsAC35 [32]: 52.95 µM

CN1CCN(C2=C(NC(=O)c3ccccc3)C(=O)c3ccccc3C2=O)CC1
AC50 [33]: 17 µM (active) | AC50 [34]: 12.9 µM (active)

C[C@H]1CCCCO[C@@H](CN(C)S(=O)(=O)c2ccc(Cl)cc2)[C@@H](C)CN([C@@H](C)CO)C(=O)c2cc(NC(=O)NC3CCCCC3)ccc2O1
AC50 [35]: 30.1 µM (active) | AC50 [36]: > 52 µM (inactive) | AC50 [37]: 20.1 µM (active) | AC50 [38]: 32.4 µM (active) | AC50 [39]: > 52 µM (inactive)

Cc1nc2ccc(C(=O)Nc3ccncc3)cc2s1
CC50 [40]: > 300 µM (active)

O=C1C(Nc2ccc(F)cc2)=C(N2CCCC2)C(=O)c2ccccc21
AC50 [41]: 11.9 µM (active) | AC50 [42]: 625 nM (active) | AC50 [43]: 583 nM (active)

O=C(Nc1nc(-c2ccc(S(=O)(=O)N3CCOCC3)cc2)cs1)C1CCCC1
IC50 [44]: > 80 µM (inactive)

CCc1nc(N2[C@H](CO)[C@@H](c3ccccc3-c3ccc(F)cc3)[C@@H]2C#N)sc1C
AC50 [45]: > 26 µM (inactive)

Cc1cccn2c(=O)c3cc(C#N)/c(=N\C(=O)c4cccs4)n(CC(C)C)c3nc12
AC50 [46]: > 52 µM (inactive)
